From patent publication US6096930A, “Herbicidal cyclohexane-1,3-dione derivatives and their preparation process” (Korea Research Institute of Chemical Technology, priority 1994, dated 2000)

Columns and labels:
Assay type in all cases: in vivo
ABUTH [1] = assay: Herbicidal activity, upland test, pre-emergence
Experimental: (§1) The sterilized sandy loam soil is filled in test pot having a surface area of 348 cm^2 for upland test conditions or 115 cm^2 for paddy test species were planted in furrows.
(§2) For the pre-emergent tests, were sprayed on the soil one day after planting test compound in a mixture of acetone and 7 ml of the water containing up to 0.1% Tween 20.
(§3) The concentration of the test compound in solution was varied to give a range of application rates, generally 4.0 kg/ha and submultiples thereof. The pots were placed in a greenhouse and watered regularly at the soil surface for 21 days and herbicidal effects were visually rated by a percent control.
(§4) The herbicidal activity data were taken visually by percent control, wherein 0 signifies no herbicidal effect and 100 signifies complete kill.

AESIN [2] = assay: Herbicidal activity, upland test, pre-emergence
Experimental: as §1, §2, §3, §4

BROJA [3] = assay: Herbicidal activity, upland test, pre-emergence
Experimental: as §1, §2, §3, §4

DIGSA [4] = assay: Herbicidal activity, upland test, pre-emergence
Experimental: as §1, §2, §3, §4

ECHOR [5] = assay: Herbicidal activity, upland test, pre-emergence
Experimental: as §1, §2, §3, §4

GLXMX [6] = assay: Herbicidal activity, upland test, pre-emergence
Experimental: as §1, §2, §3, §4

GOSHI [7] = assay: Herbicidal activity, upland test, pre-emergence
Experimental: as §1, §2, §3, §4

ORYSA [8] = assay: Herbicidal activity, upland test, pre-emergence
Experimental: as §1, §2, §3, §4

PANDI [9] = assay: Herbicidal activity, upland test, pre-emergence
Experimental: as §1, §2, §3, §4

SOLNI [10] = assay: Herbicidal activity, upland test, pre-emergence
Experimental: as §1, §2, §3, §4

SORBI [11] = assay: Herbicidal activity, upland test, pre-emergence
Experimental: as §1, §2, §3, §4

TRZAW [12] = assay: Herbicidal activity, upland test, pre-emergence
Experimental: as §1, §2, §3, §4

ZEAMX [13] = assay: Herbicidal activity, upland test, pre-emergence
Experimental: as §1, §2, §3, §4

ABUTH [14] = assay: Herbicidal activity, upland test, post-emergence
From the text: as §1
(§5) The pots for the post-emergent tests were placed in a greenhouse and watered for 9~14 days, then the foliage of test plants was sprayed with a solution of the test compound in a mixture of acetone and water containing a small amount of Tween 20.
(§6) After spraying the plants were kept for one day, then watered regularly for 14 to 21 days, and herbicidal activity data were recorded.
as §4

AESIN [15] = assay: Herbicidal activity, upland test, post-emergence
From the text: as §1, §5, §6, §4

BROJA [16] = assay: Herbicidal activity, upland test, post-emergence
From the text: as §1, §5, §6, §4

DIGSA [17] = assay: Herbicidal activity, upland test, post-emergence
From the text: as §1, §5, §6, §4

ECHOR [18] = assay: Herbicidal activity, upland test, post-emergence
From the text: as §1, §5, §6, §4

GLXMX [19] = assay: Herbicidal activity, upland test, post-emergence
From the text: as §1, §5, §6, §4

GOSHI [20] = assay: Herbicidal activity, upland test, post-emergence
From the text: as §1, §5, §6, §4

ORYSA [21] = assay: Herbicidal activity, upland test, post-emergence
From the text: as §1, §5, §6, §4

PANDI [22] = assay: Herbicidal activity, upland test, post-emergence
From the text: as §1, §5, §6, §4

SOLNI [23] = assay: Herbicidal activity, upland test, post-emergence
From the text: as §1, §5, §6, §4

SORBI [24] = assay: Herbicidal activity, upland test, post-emergence
From the text: as §1, §5, §6, §4

TRZAW [25] = assay: Herbicidal activity, upland test, post-emergence
From the text: as §1, §5, §6, §4

ZEAMX [26] = assay: Herbicidal activity, upland test, post-emergence
From the text: as §1, §5, §6, §4

## CCC(=NOC)C1=C(O)CC(c2c(C)c(C)c3c(c2C)CC(C)(C)C3)CC1=O (centres unmarked) [Compound 1]
ABUTH [1]; 0.016 kg/ha
  Herbicidal activity, ABUTH: 0 % inhibition
ABUTH [1]; 0.063 kg/ha
  Herbicidal activity, ABUTH: 0 % inhibition
ABUTH [1]; 1.000 kg/ha
  Herbicidal activity, ABUTH: 0 % inhibition
ABUTH [1]; 1.250 kg/ha
  Herbicidal activity, ABUTH: 0 % inhibition
AESIN [2]; 0.016 kg/ha
  Herbicidal activity, AESIN: 0 % inhibition
AESIN [2]; 0.063 kg/ha
  Herbicidal activity, AESIN: 0 % inhibition
AESIN [2]; 1.000 kg/ha
  Herbicidal activity, AESIN: 0 % inhibition
AESIN [2]; 1.250 kg/ha
  Herbicidal activity, AESIN: 0 % inhibition
BROJA [3]; 0.016 kg/ha
  Herbicidal activity, BROJA: 0 % inhibition
BROJA [3]; 0.063 kg/ha
  Herbicidal activity, BROJA: 0 % inhibition
BROJA [3]; 1.000 kg/ha
  Herbicidal activity, BROJA: 100 % inhibition
BROJA [3]; 1.250 kg/ha
  Herbicidal activity, BROJA: 40 % inhibition
DIGSA [4]; 0.016 kg/ha
  Herbicidal activity, DIGSA: 0 % inhibition
DIGSA [4]; 0.063 kg/ha
  Herbicidal activity, DIGSA: 30 % inhibition
DIGSA [4]; 1.000 kg/ha
  Herbicidal activity, DIGSA: 100 % inhibition
DIGSA [4]; 1.250 kg/ha
  Herbicidal activity, DIGSA: 70 % inhibition
ECHOR [5]; 0.016 kg/ha
  Herbicidal activity, ECHOR: 0 % inhibition
ECHOR [5]; 0.063 kg/ha
  Herbicidal activity, ECHOR: 30 % inhibition
ECHOR [5]; 1.000 kg/ha
  Herbicidal activity, ECHOR: 100 % inhibition
ECHOR [5]; 1.250 kg/ha
  Herbicidal activity, ECHOR: 80 % inhibition
GLXMX [6]; 0.016 kg/ha
  Herbicidal activity, GLXMX: 0 % inhibition
GLXMX [6]; 0.063 kg/ha
  Herbicidal activity, GLXMX: 0 % inhibition
GLXMX [6]; 1.000 kg/ha
  Herbicidal activity, GLXMX: 0 % inhibition
GLXMX [6]; 1.250 kg/ha
  Herbicidal activity, GLXMX: 0 % inhibition
GOSHI [7]; 0.016 kg/ha
  Herbicidal activity, GOSHI: 0 % inhibition
GOSHI [7]; 0.063 kg/ha
  Herbicidal activity, GOSHI: 0 % inhibition
GOSHI [7]; 1.000 kg/ha
  Herbicidal activity, GOSHI: 0 % inhibition
GOSHI [7]; 1.250 kg/ha
  Herbicidal activity, GOSHI: 0 % inhibition
ORYSA [8]; 0.016 kg/ha
  Herbicidal activity, ORYSA: 0 % inhibition
ORYSA [8]; 0.063 kg/ha
  Herbicidal activity, ORYSA: 30 % inhibition
ORYSA [8]; 1.000 kg/ha
  Herbicidal activity, ORYSA: 100 % inhibition
ORYSA [8]; 1.250 kg/ha
  Herbicidal activity, ORYSA: 100 % inhibition
PANDI [9]; 0.016 kg/ha
  Herbicidal activity, PANDI: 0 % inhibition
PANDI [9]; 0.063 kg/ha
  Herbicidal activity, PANDI: 100 % inhibition
PANDI [9]; 1.000 kg/ha
  Herbicidal activity, PANDI: 100 % inhibition
PANDI [9]; 1.250 kg/ha
  Herbicidal activity, PANDI: 100 % inhibition
SOLNI [10]; 0.016 kg/ha
  Herbicidal activity, SOLNI: 0 % inhibition
SOLNI [10]; 0.063 kg/ha
  Herbicidal activity, SOLNI: 0 % inhibition
SOLNI [10]; 1.000 kg/ha
  Herbicidal activity, SOLNI: 0 % inhibition
SOLNI [10]; 1.250 kg/ha
  Herbicidal activity, SOLNI: 0 % inhibition
SORBI [11]; 0.016 kg/ha
  Herbicidal activity, SORBI: 0 % inhibition
SORBI [11]; 0.063 kg/ha
  Herbicidal activity, SORBI: 0 % inhibition
SORBI [11]; 1.000 kg/ha
  Herbicidal activity, SORBI: 60 % inhibition
SORBI [11]; 1.250 kg/ha
  Herbicidal activity, SORBI: 20 % inhibition
TRZAW [12]; 0.016 kg/ha
  Herbicidal activity, TRZAW: 0 % inhibition
TRZAW [12]; 0.063 kg/ha
  Herbicidal activity, TRZAW: 0 % inhibition
TRZAW [12]; 1.000 kg/ha
  Herbicidal activity, TRZAW: 60 % inhibition
TRZAW [12]; 1.250 kg/ha
  Herbicidal activity, TRZAW: 20 % inhibition
ZEAMX [13]; 0.016 kg/ha
  Herbicidal activity, ZEAMX: 0 % inhibition
ZEAMX [13]; 0.063 kg/ha
  Herbicidal activity, ZEAMX: 0 % inhibition
ZEAMX [13]; 1.000 kg/ha
  Herbicidal activity, ZEAMX: 60 % inhibition
ZEAMX [13]; 1.250 kg/ha
  Herbicidal activity, ZEAMX: 10 % inhibition
ABUTH [14]; 0.016 kg/ha
  Herbicidal activity, ABUTH: 0 % inhibition
ABUTH [14]; 0.063 kg/ha
  Herbicidal activity, ABUTH: 0 % inhibition
ABUTH [14]; 1.000 kg/ha
  Herbicidal activity, ABUTH: 0 % inhibition
ABUTH [14]; 1.250 kg/ha
  Herbicidal activity, ABUTH: 0 % inhibition
AESIN [15]; 0.016 kg/ha
  Herbicidal activity, AESIN: 0 % inhibition
AESIN [15]; 0.063 kg/ha
  Herbicidal activity, AESIN: 0 % inhibition
AESIN [15]; 1.000 kg/ha
  Herbicidal activity, AESIN: 0 % inhibition
AESIN [15]; 1.250 kg/ha
  Herbicidal activity, AESIN: 0 % inhibition
BROJA [16]; 0.016 kg/ha
  Herbicidal activity, BROJA: 0 % inhibition
BROJA [16]; 0.063 kg/ha
  Herbicidal activity, BROJA: 40 % inhibition
BROJA [16]; 1.000 kg/ha
  Herbicidal activity, BROJA: 100 % inhibition
BROJA [16]; 1.250 kg/ha
  Herbicidal activity, BROJA: 70 % inhibition
DIGSA [17]; 0.016 kg/ha
  Herbicidal activity, DIGSA: 70 % inhibition
DIGSA [17]; 0.063 kg/ha
  Herbicidal activity, DIGSA: 100 % inhibition
DIGSA [17]; 1.000 kg/ha
  Herbicidal activity, DIGSA: 100 % inhibition
DIGSA [17]; 1.250 kg/ha
  Herbicidal activity, DIGSA: 100 % inhibition
ECHOR [18]; 0.016 kg/ha
  Herbicidal activity, ECHOR: 60 % inhibition
ECHOR [18]; 0.063 kg/ha
  Herbicidal activity, ECHOR: 100 % inhibition
ECHOR [18]; 1.000 kg/ha
  Herbicidal activity, ECHOR: 100 % inhibition
ECHOR [18]; 1.250 kg/ha
  Herbicidal activity, ECHOR: 100 % inhibition
GLXMX [19]; 0.016 kg/ha
  Herbicidal activity, GLXMX: 0 % inhibition
GLXMX [19]; 0.063 kg/ha
  Herbicidal activity, GLXMX: 0 % inhibition
GLXMX [19]; 1.000 kg/ha
  Herbicidal activity, GLXMX: 60 % inhibition
GLXMX [19]; 1.250 kg/ha
  Herbicidal activity, GLXMX: 20 % inhibition
GOSHI [20]; 0.016 kg/ha
  Herbicidal activity, GOSHI: 0 % inhibition
GOSHI [20]; 0.063 kg/ha
  Herbicidal activity, GOSHI: 30 % inhibition
GOSHI [20]; 1.000 kg/ha
  Herbicidal activity, GOSHI: 50 % inhibition
GOSHI [20]; 1.250 kg/ha
  Herbicidal activity, GOSHI: 40 % inhibition
ORYSA [21]; 0.016 kg/ha
  Herbicidal activity, ORYSA: 0 % inhibition
ORYSA [21]; 0.063 kg/ha
  Herbicidal activity, ORYSA: 50 % inhibition
ORYSA [21]; 1.000 kg/ha
  Herbicidal activity, ORYSA: 100 % inhibition
ORYSA [21]; 1.250 kg/ha
  Herbicidal activity, ORYSA: 100 % inhibition
PANDI [22]; 0.016 kg/ha
  Herbicidal activity, PANDI: 40 % inhibition
PANDI [22]; 0.063 kg/ha
  Herbicidal activity, PANDI: 100 % inhibition
PANDI [22]; 1.000 kg/ha
  Herbicidal activity, PANDI: 100 % inhibition
PANDI [22]; 1.250 kg/ha
  Herbicidal activity, PANDI: 100 % inhibition
SOLNI [23]; 0.016 kg/ha
  Herbicidal activity, SOLNI: 0 % inhibition
SOLNI [23]; 0.063 kg/ha
  Herbicidal activity, SOLNI: 0 % inhibition
SOLNI [23]; 1.000 kg/ha
  Herbicidal activity, SOLNI: 0 % inhibition
SOLNI [23]; 1.250 kg/ha
  Herbicidal activity, SOLNI: 0 % inhibition
SORBI [24]; 0.016 kg/ha
  Herbicidal activity, SORBI: 0 % inhibition
SORBI [24]; 0.063 kg/ha
  Herbicidal activity, SORBI: 20 % inhibition
SORBI [24]; 1.000 kg/ha
  Herbicidal activity, SORBI: 100 % inhibition
SORBI [24]; 1.250 kg/ha
  Herbicidal activity, SORBI: 60 % inhibition
TRZAW [25]; 0.016 kg/ha
  Herbicidal activity, TRZAW: 30 % inhibition
TRZAW [25]; 0.063 kg/ha
  Herbicidal activity, TRZAW: 40 % inhibition
TRZAW [25]; 1.000 kg/ha
  Herbicidal activity, TRZAW: 100 % inhibition
TRZAW [25]; 1.250 kg/ha
  Herbicidal activity, TRZAW: 60 % inhibition
ZEAMX [26]; 0.016 kg/ha
  Herbicidal activity, ZEAMX: 0 % inhibition
ZEAMX [26]; 0.063 kg/ha
  Herbicidal activity, ZEAMX: 30 % inhibition
ZEAMX [26]; 1.000 kg/ha
  Herbicidal activity, ZEAMX: 100 % inhibition
ZEAMX [26]; 1.250 kg/ha
  Herbicidal activity, ZEAMX: 100 % inhibition
